Data on 46 compounds can be found in patent US10774053B2, “HIV protease inhibitors” (Gilead Sciences, Inc., priority 2017, dated 2020).

Usually EC50 stands for the concentration needed to bring the measured effect to its halfway point.

Each structure is given as a SMILES string.

This test concerns HIV-1 (IIIB) in MT-4 cells. The test can be described thus: microbe, parasite or virus in culture. It counts as cell-based. Particulars: Human immunodeficiency virus 1, IIIB, MT4, MT-4 cells, HIV-1; read-out: MT4 EC50.

On to `CC(C)(C)C[C@]1(c2ccc(-c3cnn(C(F)F)c3)cc2)NC(=N)N([C@H](CO)c2ccc(Cl)c(-n3ncnc3C(F)F)c2)C1=O` [Compound 186], for which the EC50 worked out at 0.0802 µM.
In the case of `CC(C)(C)C[C@]1(c2ccc(-c3cnn(C(F)F)c3)cc2)NC(=N)N([C@H](CO)c2ccc(Cl)c(-c3ncn[nH]3)c2)C1=O` [Compound 42], the EC50 was 0.103 µM.
With `CC(C)(C)C[C@]1(c2ccc(-c3cnn(C(F)F)c3)cc2)NC(=N)N([C@H](COC(=O)N2CC(F)(F)C2)c2ccc(Cl)c(-n3ncnc3C(F)F)c2)C1=O` [Compound 184], the EC50 amounted to 0.00993 µM.
In the case of `[2H]C([2H])([2H])n1cnc(-c2cc([C@@H](COC(=O)NC(C)(C)C(F)F)N3C(=N)N[C@](CC4(C)CC4)(c4ccc(-c5cnn(C(F)F)c5)cc4)C3=O)ccc2Cl)n1` [Compound 98] it was 0.052 µM; in that of `CC1(C[C@]2(c3ccc(-c4cnn(C5CC5)c4)cc3)NC(=N)N([C@H](COC(=O)NC3(C(F)(F)F)CC3)c3ccc(Cl)c(-c4ncnn4C(F)F)c3)C2=O)CC1` [Compound 139], 0.0281 µM; in that of `N=C1N[C@](C#CC2CC2)(c2ccc(-c3cnn(C(F)F)c3)cc2)C(=O)N1[C@H](COC(=O)NC1(C(F)(F)F)CC1)c1ccc(Cl)c(-n2cccn2)c1` [Compound 267], 0.243 µM.
For `CC(C)(C)C[C@]1(c2ccc(-c3cnn(C4CC4)n3)cc2F)NC(=N)N([C@H](COC(=O)NC2(C(F)(F)F)CC2)c2ccc(Cl)c(-c3ncnn3C(F)F)c2)C1=O` [Compound 143], the EC50 came out at 0.00959 µM.
For the compound `[2H]C([2H])([2H])n1cnc(-c2cc([C@@H](COC(=O)NC(C)(C)C(F)F)N3C(=N)N[C@](C[C@@]4(C)CC4(F)F)(c4ccc(-c5cnn(C(F)F)c5)cc4)C3=O)ccc2Cl)n1` [Compound 96], the EC50 was determined as 0.0837 µM.
As to `CC(C)(C)C[C@]1(c2ccc(-c3cnn(C(F)F)c3)cc2)NC(=N)N([C@H](COC(=O)NC(C)(C)C(F)(F)F)c2ccc(Cl)c(-c3ncn[nH]3)c2)C1=O` [Compound 45], the EC50 was found to be 0.0317 µM.
In the case of `C[C@H](NC(=O)OC[C@H](c1ccc(Cl)c(-n2ncnc2C(F)F)c1)N1C(=N)N[C@](CC(C)(C)C)(c2ccc(-c3cnn(C4CC4)c3)cc2F)C1=O)C(F)(F)F` [Compound 315] it was 0.00997 µM.
In the case of `CC(C)(C)C[C@]1(c2ccc(-c3cnn(C4CC4)n3)cc2)NC(=N)N([C@H](CNC(=O)C2(C)CC2)c2ccc(Cl)c(-n3ncnc3C(F)F)c2)C1=O` [Compound 382] it was 0.0365 µM; in that of `CC(C)(C)C[C@]1(c2ccc(-c3cnn(C(F)F)c3)cc2)NC(=N)N([C@H](COC(=O)NC2(C(F)(F)F)CC2)c2ccc(Cl)c(C#N)c2)C1=O` [Compound 71], 0.324 µM.
In the case of `Cc1ncnn1-c1cc([C@@H](COC(=O)NC2(C(F)F)CC2)N2C(=N)N[C@](CC(C)(C)C)(c3ccc(-c4cnn(C(F)F)c4)cc3)C2=O)ccc1Cl` [Compound 254] it was 0.018 µM.
As to `CC(C)(C)C[C@]1(c2ccc(-c3cnn(C4CC4)n3)c(F)c2F)NC(=N)N([C@H](COC(=O)NC2(C(F)(F)F)CC2)c2ccc(Cl)c(-n3ncnc3C(F)F)c2)C1=O` [Compound 227], the EC50 turned out to be 0.0254 µM.
In the case of `Cc1ncoc1-c1cccc([C@@H](COC(=O)NC(C)C)N2C(=N)N[C@](CC(C)C)(c3ccccc3)C2=O)c1` [Compound 7] it was 57.1 µM; in that of `CC(C)(C)C[C@]1(c2ccc(-c3ccc(C#N)cc3)cc2)NC(=N)N([C@H](COC(=O)NC2(C(F)(F)F)CC2)c2ccc(Cl)c(-n3ncnc3C(F)F)c2)C1=O` [Compound 281], 0.0222 µM; in that of `CC(C)(C)C[C@]1(c2ccc(-c3cnn(C(F)F)c3)cc2)NC(=N)N([C@H](COC(=O)N[C@@H]2C[C@H]2C(F)F)c2ccc(Cl)c(-n3ncnc3C(F)F)c2)C1=O` [Compound 333], 0.0105 µM.
As to `CC(C)(C)C[C@]1(c2ccc(-c3cnn(C(F)F)c3)cc2)NC(=N)N([C@H](COC(=O)NC2(C)CC2)c2ccc(Cl)c(-n3cnc(C4CC4)n3)c2)C1=O` [Compound 239], the EC50 came to 0.604 µM.
For the compound `[2H]C([2H])([2H])OC(=O)NC[C@H](c1ccc(Cl)c(-n2ncnc2C(F)F)c1)N1C(=N)N[C@](CC(C)(C)C(F)(F)F)(c2ccc(-c3cnn(C4CC4)n3)cc2)C1=O` [Compound 393], the 50% effective concentration (EC50) came out at 0.027 µM.
Regarding `CC(C)(C)C[C@]1(c2ccc(-c3cnn(C(F)F)c3)cc2)NC(=N)N([C@H](COC(=O)N2CC(C(F)(F)F)C2)c2ccc(Cl)c(-c3ncn[nH]3)c2)C1=O` [Compound 83], the EC50 is 0.0334 µM.
As for `CC(C)(C)C[C@]1(c2ccc(-c3cnn(C(F)F)c3)cc2)NC(=N)N([C@H](COC(=O)NC2(C)CC2)c2ccc(Cl)c(-n3ncnc3C3CC3)c2)C1=O` [Compound 252], the EC50 came to 0.0207 µM.
Next, `CC(C)(C)C[C@]1(c2ccc(-c3cnn(C4CC4)c3)cc2)NC(=N)N([C@H](COC(=O)N[C@H]2CC2(F)F)c2ccc(Cl)c(-n3ncnc3C(F)F)c2)C1=O` [Compound 294]: 0.00874 µM.
For `CC(C)(C)C[C@]1(c2ccc(-c3ccsn3)cc2)NC(=N)N([C@H](COC(=O)NC2(C(F)(F)F)CC2)c2ccc(Cl)c(-n3ncnc3C(F)F)c2)C1=O` [Compound 276], the EC50 was determined as 0.0125 µM.
In the case of `CC(C)(C)C[C@]1(c2ccc(-c3cnn(C(F)F)c3)cc2)NC(=N)N([C@H](COC(=O)NC2(C(F)(F)F)CC2)c2ccc(C(N)=O)c(-c3ncnn3C(F)F)c2)C1=O` [Compound 141] it was 1.02 µM; in that of `CC(C)(C)C[C@]1(c2ccc(-c3cnn(C(F)F)c3)cc2)NC(=N)N([C@H](COC(=O)NC2(C(F)(F)F)CC2)c2ccc(Cl)c(-n3ncnc3C3CC3)c2)C1=O` [Compound 253], 0.0281 µM.
Regarding `CC(C)(C)C[C@]1(c2ccc(-c3ccc(OC(F)F)cc3)cc2)NC(=N)N([C@H](COC(=O)NC2(C(F)(F)F)CC2)c2ccc(Cl)c(-n3ncnc3C(F)F)c2)C1=O` [Compound 282], the EC50 amounted to 0.062 µM.
Next, `CC(C)(C)C[C@]1(c2ccc(-c3cnn(C(F)F)c3)cc2)NC(=N)N([C@H](COC(=O)N2CCC2)c2ccc(Cl)c(-c3ncn[nH]3)c2)C1=O` [Compound 86]: 0.0354 µM.
Next, `CC(C)(C)C[C@]1(c2ccc(-c3cnn(C(F)F)c3)cc2)NC(=N)N([C@H](COC(=O)Nc2ccccn2)c2ccc(Cl)c(-c3ncn[nH]3)c2)C1=O` [Compound 108]: 0.0858 µM; `C[C@H](NC(=O)OC[C@H](c1ccc(Cl)c(-n2ncnc2C(F)F)c1)N1C(=N)N[C@](CC(C)(C)C)(c2ccc(-c3cnn(C4CC4)c3)cc2)C1=O)C(F)(F)F` [Compound 234]: 0.00928 µM.
In the case of `C[C@H](C(=O)NC[C@H](c1ccc(Cl)c(-n2ncnc2C(F)F)c1)N1C(=N)N[C@](CC(C)(C)C)(c2ccc(-c3cnn(C4CC4)n3)cc2)C1=O)C(F)(F)F` [Compound 385] it was 0.0128 µM; in that of `CC(C)(C)C[C@]1(c2ccc(-n3cncn3)cc2)NC(=N)N([C@H](COC(=O)NC2(C(F)(F)F)CC2)c2ccc(Cl)c(-n3ncnc3C(F)F)c2)C1=O` [Compound 229], 0.0276 µM; in that of `CC(C)(C)C[C@]1(c2ccc(-c3cnn(C(F)F)c3)cc2)NC(=N)N([C@H](COC(=O)NC2(C)CC2)c2cc(-n3cncn3)c(Cl)cn2)C1=O` [Compound 269], 0.0624 µM.
With `CC(C)(C)C[C@]1(c2ccc(-c3cncs3)cc2)NC(=N)N([C@H](COC(=O)NC2(C(F)(F)F)CC2)c2ccc(Cl)c(-n3ncnc3C(F)F)c2)C1=O` [Compound 277], the EC50 is 0.00699 µM.
Next, `C[C@@H](C(=O)NC[C@H](c1ccc(Cl)c(-n2ncnc2C(F)F)c1)N1C(=N)N[C@](CC(C)(C)C(F)(F)F)(c2ccc(-c3cnn(C4CC4)n3)cc2)C1=O)C(F)(F)F` [Compound 390]: 0.0209 µM.
Next, `CC(C)(C)C[C@]1(c2ccc(-c3cnn(C4CC4)n3)cc2)NC(=N)N([C@H](CNC(=O)CC2CC2)c2ccc(Cl)c(-n3ncnc3C(F)F)c2)C1=O` [Compound 384]: 0.018 µM; `Cc1ncnn1-c1cc([C@@H](COC(=O)NC2(C)CC2)N2C(=N)N[C@](CC(C)(C)C)(c3ccc(-c4cnn(C(F)F)c4)cc3)C2=O)ccc1Cl` [Compound 247]: 0.00751 µM.
In the case of `CC(C)(C)C[C@]1(c2ccc(-n3cc(F)cn3)cc2)NC(=N)N([C@H](COC(=O)NC2(C(F)(F)F)CC2)c2ccc(Cl)c(-c3ncnn3C(F)F)c2)C1=O` [Compound 138] it was 0.0115 µM; in that of `CC(C)(C)C[C@]1(c2ccc(-c3cnn(C(F)F)c3)cc2)NC(=N)N([C@H](COC(=O)NC2(C(F)(F)F)CC2)c2ccc(C#N)c(-c3ncnn3C(F)F)c2)C1=O` [Compound 140], 0.266 µM.
Consider `CC(C)C[C@]1(c2ccc(-c3cnn(C(F)F)c3)cc2)NC(=N)N([C@H](COC(=O)NC2(C(F)(F)F)CC2)c2ccc(Cl)c(-n3cncn3)c2)C1=O` [Compound 250], for which the EC50 came to 0.0298 µM.
Take `CC(C)(C)C[C@]1(c2ccc(-c3cnn(C(F)F)c3)cc2)NC(=N)N([C@H](COC(=O)N[C@H]2CC23CC3)c2ccc(Cl)c(-n3ncnc3C(F)F)c2)C1=O` [Compound 342]: the concentration for a half-maximal effect (EC50) came to 0.00892 µM.
With `CC(C)(C)C[C@]1(c2ccc(-c3ccn4ccnc4c3)cc2)NC(=N)N([C@H](COC(=O)NC2(C(F)(F)F)CC2)c2ccc(Cl)c(-c3ncnn3C(F)F)c2)C1=O` [Compound 120], the EC50 stood at 0.0278 µM.
In the case of `CC(C)(C)C[C@]1(c2ccc(-c3cnn(C4CC4)c3)c(F)c2)NC(=N)N([C@H](COC(=O)NCC(F)(F)F)c2ccc(Cl)c(-n3ncnc3C(F)F)c2)C1=O` [Compound 307] it was 0.0126 µM; in that of `CC(C)(C)C[C@]1(c2ccc(-c3cnn(C(F)F)c3)cc2)NC(=N)N([C@H](COC(=O)NC2(C)CC2)c2ccc(Cl)c(-c3ncnn3C3CC3)c2)C1=O` [Compound 43], 0.00818 µM.
For the compound `CC1(NC(=O)OC[C@H](c2ccc(Cl)c(-n3cccn3)c2)N2C(=N)N[C@](CC(C)(C)C(F)(F)F)(c3ccc(-c4cnn(C(F)F)c4)cc3)C2=O)CC1` [Compound 323], the 50% effective concentration (EC50) is 0.0507 µM.
Next, `C[C@@H](NC(=O)OC[C@H](c1ccc(Cl)c(-n2ncnc2C(F)F)c1)N1C(=N)N[C@](CC(C)(C)C)(c2ccc(-c3cnn(C(F)F)c3)cc2)C1=O)C(F)(F)F` [Compound 310]: 0.0203 µM.
For the compound `CC1(NC(=O)OC[C@H](c2ccc(Cl)c(-c3ncnn3C(F)F)c2)N2C(=N)N[C@](CC(C)(C)C(F)(F)F)(c3ccc(-c4cnn(C5CC5)n4)cc3)C2=O)CC1` [Compound 157], the EC50 was determined as 0.00764 µM.
